Measurements: patent US9273018B2, “Piperazine derivatives” (St. Mary's University, priority 2011, dated 2016)

How the values were obtained:
Format in all cases: cell-based
A549 lung cancer cells = experiment: Cytotoxicity of A549 lung cancer cells (relative cell density); conditions: relative cell density as percent of control, FIG. 2
Protocol: A549 lung cancer cells were cultured according to established protocols (Lieber M. et al., Int. J. Cancer 17: 62-70, 1976). Temozolomide and dacarbazine were separately added to the cell culture media at increasing doses and the relative cell density, as a percent of control cells not exposed to temozolomide or dacarbazine, was calculated.
To test the cytotoxic effect of 1-[(E)-2-(4-nitrophenyl)diazen-1-yl]-4-phenylpiperazine, methyl 4-[(E)-2-(4-phenylpiperazin-1-yl)diazen-1-yl]benzoate, 1-{4[(E)-2-[4-(3,4-dichlorophenyl)piperazin-1-yl]phenyl}ethan-1-one, 1-{4-[(E)-2-[4-pyridin-2-yl)piperazin-1-yl]diazen-1-yl]phenyl}ethan-1-one, serial dilutions of the compounds were made and added to the cell culture media containing the A549 lung cancer cells. The relative cell density, as a percent of control cells not exposed to temozolomide, dacarbazine or the experimental compounds, was calculated.

HT29 colon cancer cells = experiment: Cytotoxicity of HT29 colon cancer cells (relative cell density); conditions: Homo sapiens, HT-29, relative cell density as percent of control, FIG. 3, read-out: LD50 (the source's name)
[1] = tested on: U87MG glioblastoma cancer cells; experiment: Cytotoxicity of glioblastoma cancer cells (relative cell density); conditions: Homo sapiens, U-87 MG, relative cell density as percent of control, FIG. 1, read-out: LD50 (the source's name)
Protocol: U87MG glioblastoma cancer cells were cultured according to established protocols (Martinkova et al., Cytotoxicity of and DNA adduct formation by ellipicine in human U87MG glioblastoma cancer cells. Neuro Endocrinol Lett 30 (Suppl 1):60-6, 2009). Temozolomide was added to the cell culture media at increasing doses and the relative cell density, as a percent of control cells not exposed to temozolomide, was calculated. Temozolomide is one of the primary treatments for glioblastoma type cancers and dacarbazine is an antineoplastic chemotherapy used in the treatment of various cells.
To test the cytotoxic effect of 1-[(E)-2-(4-nitrophenyl)diazen-1-yl]-4-phenylpiperazine, 4-[(E)-2-(4-phenylpiperazin-1-yl)diazen-1-yl]benzonitrile, methyl 4-[(E)-2-(4-phenylpiperazin-1-yl)diazen-1-yl]benzoate, methyl 4-[(E)-2-[4-(4-chlorophenyl)piperazin-1-yl)diazen-1-yl]benzoate, 1-[(E)-2-(4-bromophenyl)diazen-1-yl]-4-[(3-methylphenyl)methyl]piperazine, 4-[(E)-2-{4-[(3-methylphenyl)methyl]piperazin-1-yl}diazen-1-yl]benzonitrile serial dilutions of the compounds were made and added to the cell culture media containing the U87MG glioblastoma cancer cells. The relative cell density, as a percent of control cells not exposed to temozolomide, dacarbazine or the experimental compounds, was calculated.

| SMILES | LD50 (A549 lung cancer cells) [µM] | IC50 (HT29 colon cancer cells) [µM] | IC50 [1] [µM] |
| --- | --- | --- | --- |
| O=[N+]([O-])c1ccc(/N=N/N2CCN(c3ccccc3)CC2)cc1 [Compound 1, 1-[(E)-2-(4-nitrophenyl)diazen-1-yl]-4-phenylpiperazine] | 5.27 | 2.5 | 4.36 |
| N#Cc1ccc(/N=N/N2CCN(c3ccccc3)CC2)cc1 [Compound 2, 4-[(E)-2-(4-phenylpiperazin-1-yl)diazen-1-yl]benzonitrile] |  | 2.6 | 12.4 |
| COC(=O)c1ccc(/N=N/N2CCN(c3ccccc3)CC2)cc1 [Compound 3, Methyl 4-[(E)-2-(4-phenylpiperazin-1-yl)diazen-1-yl]benzoate] | 25.5 | 3.9 | 16.2 |
| Cc1ccc(/N=N/N2CCN(c3ccccc3)CC2)cc1 [Compound 7, 1-[(E)-2-(4-methylphenyl)diazen-1-yl]-4-phenylpiperazine] |  | 9.6 |  |
| COC(=O)c1ccc(/N=N/N2CCN(c3ccc(Cl)cc3)CC2)cc1 [Compound 12, methyl 4-[(E)-2-[4-(4-chlorophenyl)piperazin-1-yl)diazen-1-yl]benzoate] |  |  | 22.2 |
| CC(=O)c1ccc(/N=N/N2CCN(c3ccc(Cl)c(Cl)c3)CC2)cc1 [Compound 22] | 3.4 | 3.4 |  |
| COC(=O)c1ccc(/N=N/N2CCN(c3ccccn3)CC2)cc1 [Compound 42, methyl 4-[(E)-2-[4-(pyridin-2-yl)piperazin-1-yl]diazen-1-yl]benzoate] |  | 14.6 |  |
| CC(=O)c1ccc(/N=N/N2CCN(c3ccccn3)CC2)cc1 [Compound 45] | 15.6 | 11.2 |  |
| N#Cc1ccccc1N1CCN(/N=N/c2ccc(Br)cc2)CC1 [Compound 49, 2-{4-[(E)-2-(4-bromophenyl)diazen-1-yl]piperazin-1-yl}benzonitrile] |  | 5.2 |  |
| Cc1cccc(CN2CCN(/N=N/c3ccc(C#N)cc3)CC2)c1 [Compound 68, 4-[(E)-2-{4-[(3-methylphenyl)methyl]piperazin-1-yl}diazen-1-yl]benzonitrile] |  | 13.5 | 14 |
| Cc1cccc(CN2CCN(/N=N/c3ccc(Br)cc3)CC2)c1 [Compound 70, 1-[(E)-2-(4-bromophenyl)diazen-1-yl]-4-[(3-methylphenyl)methyl]piperazine] |  | 17.6 | 12.2 |
| Cn1nnc2c(C(N)=O)ncn2c1=O [Temozolomide, reference compound] | 60.4 |  | 25.5 |
| CN(C)/N=N/c1[nH]cnc1C(N)=O [dacarbazine, reference compound] | 25.7 | 25.2 | 25 |
